# Data taken from PMC6318274, “Lattice engineering enables definition of molecular features allowing for potent small-molecule inhibition of HIV-1 entry” (Nature Communications, 2019).
# Values joined by “and” are separate entries in the source; they are usually repeats but may differ in a detail not shown here. Equal entries are not always repeated. Where two headings read alike, the source gives them in different places.
# System: HIV-1 Env-pseudoviruses (208-strain panel)
# Test: microbe, parasite or virus in culture
# Type: cell-based
# Parameters: Total Neutralized / % Neutralized: concentration or dose not given beside the values
# Protocol: Neutralization was measured using single-round-of-infection HIV-1 Env-pseudoviruses and TZM-bl target cells (ARP Cat No. #8129)[44],[45]. Compounds were prepared at 400 μM with 4% DMSO (dimethyl sulfoxide) in PBS (phosphate-buffered saline) and diluted 20 times as the starting concentration for serial dilution in the neutralization assays. […] After incubation at 37 °C for 2 days, infection of target cells was measured by luciferase activity. Neutralization curves were fit by nonlinear regression using a five-parameter hill slope equation[45].
smiles,measurement,setting,value
COc1cnc(-c2csc(C(=O)NCCO)n2)c2[nH]cc(C(=O)C(=O)N3CCC(=C(C#N)c4ccccc4)CC3)c12 [BMS-818251],% Neutralized,,99% and 98% and 93% and 83% and 75%
same,Total Neutralized,,205 and 204 and 194 and 173 and 155
same,IC50,"Human immunodeficiency virus 1, BAL, TZM-bl, BaL.26, clade B, read-out: IC50",0.1 nM
same,IC50,"Human immunodeficiency virus 1, HXB2, TZM-bl, HXB2.DG, clade B, read-out: IC50",0.1 nM
same,IC50,"Human immunodeficiency virus 1, SC422, TZM-bl, SC422.8, clade B, read-out: IC50",0.2 nM
same,IC50,"Human immunodeficiency virus 1, TZM-bl",0.3 nM
same,IC50,"Human immunodeficiency virus 1, TZM-bl, 45_01dG5, clade B, read-out: IC50",0.2 nM
same,IC50,"Human immunodeficiency virus 1, TZM-bl, 0077.v1.c16, clade C, read-out: IC50",0.2 nM
same,IC50,"Human immunodeficiency virus 1, TZM-bl, 89.6.DG, clade B, read-out: IC50",0.1 nM
same,IC50,"Human immunodeficiency virus 1, TZM-bl, 96ZM651.02, clade C, read-out: IC50",0.1 nM
same,IC50,"Human immunodeficiency virus 1, TZM-bl, 208-strain panel, read-out: Geometric mean IC50",1.5 nM
same,IC50,"Human immunodeficiency virus 1, TZM-bl, 208-strain panel, read-out: Median IC50",0.5 nM
same,IC50,"Human immunodeficiency virus 1, TZM-bl, 235-47, clade AG, read-out: IC50",0.1 nM
same,IC50,"Human immunodeficiency virus 1, TZM-bl, 242-14 (Clade AG), read-out: IC50",0.5 nM
same,IC50,"Human immunodeficiency virus 1, TZM-bl, 246-F3.C10.2, clade AC, read-out: IC50",2 nM
same,IC50,"Human immunodeficiency virus 1, TZM-bl, 247-23 (Clade D), read-out: IC50",0.5 nM
same,IC50,"Human immunodeficiency virus 1, TZM-bl, 0260.v5.c36, clade A, read-out: IC50",1 nM
same,IC50,"Human immunodeficiency virus 1, TZM-bl, 263-8, clade AG, read-out: IC50",0.1 nM
same,IC50,"Human immunodeficiency virus 1, TZM-bl, 269-12, clade AG, read-out: IC50",662 nM
same,IC50,"Human immunodeficiency virus 1, TZM-bl, 271-11, clade AG, read-out: IC50",1240 nM
same,IC50,"Human immunodeficiency virus 1, TZM-bl, 286.36, clade C, read-out: IC50",0.1 nM
same,IC50,"Human immunodeficiency virus 1, TZM-bl, 288.38, clade C, read-out: IC50",0.2 nM
same,IC50,"Human immunodeficiency virus 1, TZM-bl, 0330.v4.c3 (Clade A), read-out: IC50",10 nM
same,IC50,"Human immunodeficiency virus 1, TZM-bl, 398-F1.F6.20, clade A, read-out: IC50",11 nM
same,IC50,"Human immunodeficiency virus 1, TZM-bl, 426c (Clade C), read-out: IC50",0.6 nM
same,IC50,"Human immunodeficiency virus 1, TZM-bl, 0439.v5.c1, clade A, read-out: IC50",0.6 nM
same,IC50,"Human immunodeficiency virus 1, TZM-bl, 0815.v3.c3, clade ACD, read-out: IC50",0.1 nM
same,IC50,"Human immunodeficiency virus 1, TZM-bl, 00836-2.5, clade C, read-out: IC50",12200 nM
same,IC50,"Human immunodeficiency virus 1, TZM-bl, 0921.v2.c14, clade C, read-out: IC50",0.1 nM
same,IC50,"Human immunodeficiency virus 1, TZM-bl, 928-28, clade AG, read-out: IC50",46 nM
same,IC50,"Human immunodeficiency virus 1, TZM-bl, 001428-2.42, clade C, read-out: IC50",14 nM
same,IC50,"Human immunodeficiency virus 1, TZM-bl, 3168.v4.c10, clade C, read-out: IC50",0.1 nM
same,IC50,"Human immunodeficiency virus 1, TZM-bl, 3301.v1.c24, clade AC, read-out: IC50",5 nM
same,IC50,"Human immunodeficiency virus 1, TZM-bl, 3326.v4.c3, clade CD, read-out: IC50",0.1 nM
same,IC50,"Human immunodeficiency virus 1, TZM-bl, 3337.v2.c6, clade CD, read-out: IC50",0.2 nM
same,IC50,"Human immunodeficiency virus 1, TZM-bl, 3365.v2.c20, clade A, read-out: IC50",90 nM
same,IC50,"Human immunodeficiency virus 1, TZM-bl, 3415.v1.c1, clade A, read-out: IC50",0.4 nM
same,IC50,"Human immunodeficiency virus 1, TZM-bl, 3468.v1.c12, clade AD, read-out: IC50",0.5 nM
same,IC50,"Human immunodeficiency virus 1, TZM-bl, 3589.v1.c4, clade AC, read-out: IC50",0.2 nM
same,IC50,"Human immunodeficiency virus 1, TZM-bl, 3637.v5.c3, clade C, read-out: IC50",0.2 nM
same,IC50,"Human immunodeficiency virus 1, TZM-bl, 3718.v3.c11, clade A, read-out: IC50",0.7 nM
same,IC50,"Human immunodeficiency virus 1, TZM-bl, 3817.v2.c59, clade CD, read-out: IC50",8 nM
same,IC50,"Human immunodeficiency virus 1, TZM-bl, 3873.v1.c24, clade C, read-out: IC50",0.1 nM
same,IC50,"Human immunodeficiency virus 1, TZM-bl, 3988.25, clade B, read-out: IC50",0.1 nM
same,IC50,"Human immunodeficiency virus 1, TZM-bl, 5768.04, clade B, read-out: IC50",0.3 nM
same,IC50,"Human immunodeficiency virus 1, TZM-bl, 6095.v1.c10, clade ACD, read-out: IC50",0.1 nM
same,IC50,"Human immunodeficiency virus 1, TZM-bl, 6101.10, clade B, read-out: IC50",0.1 nM
same,IC50,"Human immunodeficiency virus 1, TZM-bl, 6322.v4.c1, clade C, read-out: IC50",42 nM
same,IC50,"Human immunodeficiency virus 1, TZM-bl, 6405.v4.c34, clade D, read-out: IC50",257 nM
same,IC50,"Human immunodeficiency virus 1, TZM-bl, 6471.v1.c16, clade C, read-out: IC50",0.1 nM
same,IC50,"Human immunodeficiency virus 1, TZM-bl, 6540.v4.c1, clade AC, read-out: IC50",2 nM
same,IC50,"Human immunodeficiency virus 1, TZM-bl, 6545.v4.c1, clade AC, read-out: IC50",0.5 nM
same,IC50,"Human immunodeficiency virus 1, TZM-bl, 6631.v3.c10, clade C, read-out: IC50",0.1 nM
same,IC50,"Human immunodeficiency virus 1, TZM-bl, 6644.v2.c33, clade C, read-out: IC50",2 nM
same,IC50,"Human immunodeficiency virus 1, TZM-bl, 6785.v5.c14, clade C, read-out: IC50",6 nM
same,IC50,"Human immunodeficiency virus 1, TZM-bl, 6838.v1.c35, clade C, read-out: IC50",0.4 nM
same,IC50,"Human immunodeficiency virus 1, TZM-bl, 7165.18 (Clade B), read-out: IC50",11 nM
same,IC50,"Human immunodeficiency virus 1, TZM-bl, 0013095-2.11, clade C, read-out: IC50",0.1 nM
same,IC50,"Human immunodeficiency virus 1, TZM-bl, 16055-2.3, clade C, read-out: IC50",0.3 nM
same,IC50,"Human immunodeficiency virus 1, TZM-bl, 16845-2.22, clade C, read-out: IC50",0.1 nM
same,IC50,"Human immunodeficiency virus 1, TZM-bl, 16936-2.21, clade C, read-out: IC50",0.4 nM
same,IC50,"Human immunodeficiency virus 1, TZM-bl, 25710-2.43, clade C, read-out: IC50",0.1 nM
same,IC50,"Human immunodeficiency virus 1, TZM-bl, 25711-2.4, clade C, read-out: IC50",1 nM
same,IC50,"Human immunodeficiency virus 1, TZM-bl, 25925-2.22, clade C, read-out: IC50",0.1 nM
same,IC50,"Human immunodeficiency virus 1, TZM-bl, 26191-2.48, clade C, read-out: IC50",0.1 nM
same,IC50,"Human immunodeficiency virus 1, TZM-bl, 57128.vrc15, clade D, read-out: IC50",0.6 nM
same,IC50,"Human immunodeficiency virus 1, TZM-bl, 191821.E6.1, clade D, read-out: IC50",0.1 nM
same,IC50,"Human immunodeficiency virus 1, TZM-bl, 231965.c01, clade D, read-out: IC50",0.1 nM
same,IC50,"Human immunodeficiency virus 1, TZM-bl, 620345.c1, clade AE, read-out: IC50",49 nM
same,IC50,"Human immunodeficiency virus 1, TZM-bl, A07412M1.vrc12, clade D, read-out: IC50",1 nM
same,IC50,"Human immunodeficiency virus 1, TZM-bl, AC10.29, clade B, read-out: IC50",0.2 nM
same,IC50,"Human immunodeficiency virus 1, TZM-bl, ADA.DG, clade B, read-out: IC50",0.1 nM
same,IC50,"Human immunodeficiency virus 1, TZM-bl, BB201.B42, clade A, read-out: IC50",4 nM
same,IC50,"Human immunodeficiency virus 1, TZM-bl, BB539.2B13, clade A, read-out: IC50",0.2 nM
same,IC50,"Human immunodeficiency virus 1, TZM-bl, BG1168.01, clade B, read-out: IC50",1 nM
same,IC50,"Human immunodeficiency virus 1, TZM-bl, BI369.9A, clade A, read-out: IC50",0.3 nM
same,IC50,"Human immunodeficiency virus 1, TZM-bl, BJOX002000.03.2, clade BC, read-out: IC50",0.2 nM
same,IC50,"Human immunodeficiency virus 1, TZM-bl, BJOX009000.02.4, clade AE, read-out: IC50",105 nM
same,IC50,"Human immunodeficiency virus 1, TZM-bl, BJOX010000.06.2, clade AE, read-out: IC50",1660 nM
same,IC50,"Human immunodeficiency virus 1, TZM-bl, BJOX025000.01.1, clade AE, read-out: IC50",178 nM
same,IC50,"Human immunodeficiency virus 1, TZM-bl, BJOX028000.10.3 (Clade AE), read-out: IC50",236 nM
same,IC50,"Human immunodeficiency virus 1, TZM-bl, BL01.DG (Clade B), read-out: IC50",2960 nM
same,IC50,"Human immunodeficiency virus 1, TZM-bl, BR07.DG, clade B, read-out: IC50",641 nM
same,IC50,"Human immunodeficiency virus 1, TZM-bl, BR025.9, clade C, read-out: IC50",880 nM
same,IC50,"Human immunodeficiency virus 1, TZM-bl, BS208.B1, clade A, read-out: IC50",0.3 nM
same,IC50,"Human immunodeficiency virus 1, TZM-bl, BX08.16, clade B, read-out: IC50",0.1 nM
same,IC50,"Human immunodeficiency virus 1, TZM-bl, C1080.c3, clade AE, read-out: IC50",5380 nM
same,IC50,"Human immunodeficiency virus 1, TZM-bl, C2101.c1, clade AE, read-out: IC50",1470 nM
same,IC50,"Human immunodeficiency virus 1, TZM-bl, C3347.c11, clade AE, read-out: IC50",452 nM
same,IC50,"Human immunodeficiency virus 1, TZM-bl, C4118.09 (Clade AE), read-out: IC50",59 nM
same,IC50,"Human immunodeficiency virus 1, TZM-bl, CAAN.A2, clade B, read-out: IC50",0.1 nM
same,IC50,"Human immunodeficiency virus 1, TZM-bl, CAP45.G3, clade C, read-out: IC50",4 nM
same,IC50,"Human immunodeficiency virus 1, TZM-bl, CAP210.E8 (Clade C), read-out: IC50",14 nM
same,IC50,"Human immunodeficiency virus 1, TZM-bl, CAP244.D3, clade C, read-out: IC50",0.1 nM
same,IC50,"Human immunodeficiency virus 1, TZM-bl, CE703010217.B6, clade C, read-out: IC50",0.1 nM
same,IC50,"Human immunodeficiency virus 1, TZM-bl, CH038.12, clade BC, read-out: IC50",92 nM
same,IC50,"Human immunodeficiency virus 1, TZM-bl, CH070.1, clade BC, read-out: IC50",0.8 nM
same,IC50,"Human immunodeficiency virus 1, TZM-bl, CH117.4, clade BC, read-out: IC50",0.4 nM
same,IC50,"Human immunodeficiency virus 1, TZM-bl, CH119.10 (Clade BC), read-out: IC50",0.1 nM
same,IC50,"Human immunodeficiency virus 1, TZM-bl, CH181.12, clade BC, read-out: IC50",0.1 nM
same,IC50,"Human immunodeficiency virus 1, TZM-bl, CM244.ec1, clade AE, read-out: IC50",260 nM
same,IC50,"Human immunodeficiency virus 1, TZM-bl, CNE3, clade AE, read-out: IC50",61 nM
same,IC50,"Human immunodeficiency virus 1, TZM-bl, CNE4, clade B, read-out: IC50",4730 nM
